Laboratory results: ChEMBL document CHEMBL1201862, “PubChem BioAssay data set” (2004)
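Five compound concentrations were applied to cells in 96-well plates for 48 hours; endpoints were derived by simple linear interpolation of the resulting dose-response curve. GI50 is the concentration that inhibits growth by half.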 Active and inactive are the calls of the source. Cut-off read from the data, not from the text of the source: active = GI50 up to about 1.1 µM and inactive = higher.

Tests used:
Experiment in all cases: inhibition of tumour cell growth, NCI panel, 48 h
DLD-1 = test system: DLD-1
DMS-273 = test system: DMS-273
LOX IMVI = test system: LOX IMVI
MCF7 = test system: MCF7
Malme-3M = test system: Malme-3M
NCI-H226 = test system: NCI-H226
NCI-H522 = test system: NCI-H522
OVCAR-3 = test system: OVCAR-3
OVCAR-8 = test system: OVCAR-8
SK-MEL-2 = test system: SK-MEL-2
UACC-257 = test system: UACC-257
786-0 = test system: 786-0
ACHN = test system: ACHN
HL-60 = test system: HL-60
Hs-578T = test system: Hs-578T
M14 = test system: M14
MDA-N = test system: MDA-N
SR = test system: SR
T47D = test system: T47D
SNB-78 = test system: SNB-78

Row | SMILES | GI50 (DLD-1) | GI50 (DMS-273) | GI50 (LOX IMVI) | GI50 (MCF7) | GI50 (Malme-3M) | GI50 (NCI-H226) | GI50 (NCI-H522) | GI50 (OVCAR-3) | GI50 (OVCAR-8) | GI50 (SK-MEL-2) | GI50 (UACC-257) | GI50 (786-0) | GI50 (ACHN) | GI50 (HL-60) | GI50 (Hs-578T) | GI50 (M14) | GI50 (MDA-N) | GI50 (SR) | GI50 (T47D) | GI50 (SNB-78)
1 | O=C(O)/C=C/c1c[nH]cn1 | > 500 µM (inactive) | > 500 µM (inactive) | > 500 µM (inactive) | > 500 µM (inactive) | > 500 µM (inactive) | > 500 µM (inactive) | > 500 µM (inactive) | > 500 µM (inactive) | > 500 µM (inactive) | > 500 µM (inactive) | > 500 µM (inactive) | – | – | – | – | – | – | – | – | –
2 | C/C(=C\c1ccc(Cl)cc1)C(C)(C)C(=O)O | – | – | – | > 100 µM (inactive) | > 100 µM (inactive) | > 100 µM (inactive) | > 100 µM (inactive) | > 100 µM (inactive) | > 100 µM (inactive) | > 100 µM (inactive) | > 100 µM (inactive) | > 100 µM (inactive) | > 100 µM (inactive) | > 100 µM (inactive) | > 100 µM (inactive) | > 100 µM (inactive) | > 100 µM (inactive) | 3.75 µM (inactive) | > 100 µM (inactive) | –
3 | CCCCCCCCC[C@@H]1C[C@H](O)[C@H](Cc2ccccc2)N1C(=O)OC(C)(C)C | 18.3 µM (inactive) | 18.1 µM (inactive) | – | – | 20.1 µM (inactive) | – | 16.4 µM (inactive) | 20.3 µM (inactive) | 17.5 µM (inactive) | 15.3 µM (inactive) | 15.8 µM (inactive) | – | 17.1 µM (inactive) | 22.9 µM (inactive) | – | 22.6 µM (inactive) | – | 18.2 µM (inactive) | – | 22.8 µM (inactive)
4 | CN(CCO)CCC1COc2ccccc2O1 (configuration not stated) | – | – | > 10 µM (inactive) | > 10 µM (inactive) | > 10 µM (inactive) | > 10 µM (inactive) | 2.21 µM (inactive) | > 10 µM (inactive) | > 10 µM (inactive) | > 10 µM (inactive) | – | – | > 10 µM (inactive) | > 10 µM (inactive) | > 10 µM (inactive) | > 10 µM (inactive) | > 10 µM (inactive) | > 10 µM (inactive) | > 10 µM (inactive) | –
5 | N=C(N)N/N=C\c1c(-c2cccc([N+](=O)[O-])c2)nc2sccn12 | – | – | 3.89 µM (inactive) | 2.03 µM (inactive) | 24.4 µM (inactive) | 2.68 µM (inactive) | 3.45 µM (inactive) | 2.79 µM (inactive) | 1.81 µM (inactive) | 2.37 µM (inactive) | 23.7 µM (inactive) | 3.89 µM (inactive) | 2.86 µM (inactive) | 28.9 µM (inactive) | 3.62 µM (inactive) | 2.52 µM (inactive) | – | – | 1.62 µM (inactive) | –
6 | COc1ccc(-c2nnc3c4ccccc4sn23)cc1 | – | 10.8 µM (inactive) | 14.8 µM (inactive) | – | – | – | – | 17.1 µM (inactive) | 32.5 µM (inactive) | 19 µM (inactive) | 20 µM (inactive) | – | 28 µM (inactive) | 15.9 µM (inactive) | – | 26.4 µM (inactive) | – | 16.6 µM (inactive) | – | 41.9 µM (inactive)
7 | N#C/C(=C\c1ccc(Br)cc1)c1nc(-c2cc3ccccc3oc2=O)cs1 | – | – | 24.8 µM (inactive) | 18.4 µM (inactive) | 10.5 µM (inactive) | 11.9 µM (inactive) | 7.98 µM (inactive) | – | 15.9 µM (inactive) | 17.1 µM (inactive) | 11.7 µM (inactive) | 17 µM (inactive) | 10.8 µM (inactive) | > 50 µM (inactive) | 11.5 µM (inactive) | 14.9 µM (inactive) | 17.7 µM (inactive) | 34 µM (inactive) | 22.7 µM (inactive) | –
8 | CC1=C2C(=C[C@H]3[C@]4(C)CCCC(C)(C)[C@H]4CC[C@]34O[C@H]24)OC1=O | – | – | – | > 100 µM (inactive) | > 100 µM (inactive) | > 100 µM (inactive) | > 100 µM (inactive) | – | – | > 100 µM (inactive) | > 100 µM (inactive) | > 100 µM (inactive) | > 100 µM (inactive) | – | – | > 100 µM (inactive) | > 100 µM (inactive) | – | – | –
9 | CC(C)CCC1CC2C(=O)N(c3ccccc3)C(=O)C2c2[nH]c3ccccc3c21 (configuration not stated) | 2.18 µM (inactive) | 0.281 µM (active) | 1.08 µM (active) | – | 0.871 µM (active) | 2.66 µM (inactive) | – | 0.885 µM (active) | 0.9 µM (active) | – | – | 2.88 µM (inactive) | 6.07 µM (inactive) | 1.11 µM (active) | – | 0.288 µM (active) | – | 3.4 µM (inactive) | – | 3.45 µM (inactive)
10 | CC1(C)CNC(=O)C2(/C=N/C(C)(C)CNC(=O)C3(/C=N/1)CCCO3)CCCO2 (configuration not stated) | – | – | – | > 10 µM (inactive) | > 10 µM (inactive) | – | > 10 µM (inactive) | > 10 µM (inactive) | > 10 µM (inactive) | – | > 10 µM (inactive) | > 10 µM (inactive) | > 10 µM (inactive) | > 10 µM (inactive) | > 10 µM (inactive) | > 10 µM (inactive) | > 10 µM (inactive) | > 10 µM (inactive) | > 10 µM (inactive) | –
11 | CC(C)(C)[Si](C)(C)OCC1CCC(n2cnc3c(N)ncnc32)O1 (configuration not stated) | – | – | > 100 µM (inactive) | – | – | > 100 µM (inactive) | – | 48.9 µM (inactive) | 45.4 µM (inactive) | 32.1 µM (inactive) | 33.7 µM (inactive) | – | – | 48.9 µM (inactive) | 72.1 µM (inactive) | 38.8 µM (inactive) | 47.1 µM (inactive) | > 10 µM (inactive) | 27.2 µM (inactive) | –
12 | N#CSCC1COc2ccccc2O1 (configuration not stated) | – | – | 3.78 µM (inactive) | > 10 µM (inactive) | > 10 µM (inactive) | 6.11 µM (inactive) | 2.62 µM (inactive) | > 10 µM (inactive) | > 10 µM (inactive) | > 10 µM (inactive) | – | – | > 10 µM (inactive) | 2.55 µM (inactive) | > 10 µM (inactive) | 8.39 µM (inactive) | > 10 µM (inactive) | 2.58 µM (inactive) | > 10 µM (inactive) | –
13 | O=C1C2C(C(=O)N1OS(=O)(=O)c1ccccc1)N(Cc1ccccc1)C(=O)N2Cc1ccccc1 (configuration not stated) | > 100 µM (inactive) | – | > 100 µM (inactive) | – | > 100 µM (inactive) | > 100 µM (inactive) | > 100 µM (inactive) | > 100 µM (inactive) | – | – | > 100 µM (inactive) | > 100 µM (inactive) | > 100 µM (inactive) | > 100 µM (inactive) | – | > 100 µM (inactive) | – | > 100 µM (inactive) | – | > 100 µM (inactive)
14 | Brc1ccc(C2CC(c3cccc4ccccc34)=Nc3ccccc3S2)cc1 (configuration not stated) | 51.8 µM (inactive) | 80 µM (inactive) | 44.8 µM (inactive) | – | – | > 100 µM (inactive) | 22.5 µM (inactive) | – | > 100 µM (inactive) | > 100 µM (inactive) | > 100 µM (inactive) | – | > 100 µM (inactive) | 26.4 µM (inactive) | – | > 100 µM (inactive) | – | 27.5 µM (inactive) | – | 82 µM (inactive)
15 | CC(=O)N(CCN1C(=O)c2ccccc2C1=O)CCN1C(=O)c2ccccc2C1=O | > 100 µM (inactive) | > 100 µM (inactive) | > 100 µM (inactive) | – | – | – | > 100 µM (inactive) | > 100 µM (inactive) | > 100 µM (inactive) | > 100 µM (inactive) | > 100 µM (inactive) | > 100 µM (inactive) | > 100 µM (inactive) | > 100 µM (inactive) | – | > 100 µM (inactive) | – | > 100 µM (inactive) | – | > 100 µM (inactive)
16 | COc1c(Cl)cc(S(=O)O)cc1Cl | > 100 µM (inactive) | – | > 100 µM (inactive) | – | > 100 µM (inactive) | – | > 100 µM (inactive) | > 100 µM (inactive) | – | > 100 µM (inactive) | > 100 µM (inactive) | – | > 100 µM (inactive) | > 100 µM (inactive) | – | > 100 µM (inactive) | – | – | – | > 100 µM (inactive)
17 | CC(NNC(=O)c1cc[n+]([BH2-]C#N)cc1)c1ccc(F)cc1 (configuration not stated) | – | – | > 100 µM (inactive) | > 100 µM (inactive) | > 100 µM (inactive) | > 100 µM (inactive) | > 100 µM (inactive) | > 100 µM (inactive) | > 100 µM (inactive) | > 100 µM (inactive) | > 100 µM (inactive) | > 100 µM (inactive) | > 100 µM (inactive) | > 100 µM (inactive) | > 100 µM (inactive) | > 100 µM (inactive) | > 100 µM (inactive) | > 100 µM (inactive) | > 100 µM (inactive) | –
18 | COc1cc(C2c3[nH]c4ccccc4c3[C@@H](Nc3ccc(F)cc3)[C@H]3COC(=O)N23)cc(OC)c1O (some centres not stated) | – | – | 1.21 µM (inactive) | 0.622 µM (active) | 2.49 µM (inactive) | 0.815 µM (active) | – | 1.92 µM (inactive) | 2.7 µM (inactive) | – | 3.77 µM (inactive) | – | 0.248 µM (active) | – | 0.0962 µM (active) | 2.02 µM (inactive) | 2.3 µM (inactive) | – | 2.25 µM (inactive) | –
19 | COc1ccc([I+]c2ccc(OC)cc2)cc1 | – | – | 28.6 µM (inactive) | 46.7 µM (inactive) | 20.2 µM (inactive) | 32.7 µM (inactive) | > 61.1 µM (inactive) | 26.7 µM (inactive) | 22.1 µM (inactive) | > 100 µM (inactive) | 11.6 µM (inactive) | 50.7 µM (inactive) | > 100 µM (inactive) | 27 µM (inactive) | > 100 µM (inactive) | 54.8 µM (inactive) | – | > 50.5 µM (inactive) | > 95.7 µM (inactive) | –
20 | COc1cc(C(C)c2cc3c(cc2OCCO)OCO3)cc(OC)c1OC (configuration not stated) | 1.71 µM (inactive) | 0.413 µM (active) | 2.75 µM (inactive) | – | > 100 µM (inactive) | 2.86 µM (inactive) | 0.547 µM (active) | 0.538 µM (active) | 3.27 µM (inactive) | 2 µM (inactive) | 7.16 µM (inactive) | – | 10.1 µM (inactive) | 0.313 µM (active) | – | 1.18 µM (inactive) | – | 0.299 µM (active) | – | 12.2 µM (inactive)
